# Patent US9937161B2, “Combinatorial compositions and methods for treatment of melanoma” (THE GENERAL HOSPITAL CORPORATION, priority 2013, dated 2018)
# Tests used:
# PGC1α promoter = PGC1α promoter luciferase assay; format: cell-based; details: UACC-62 cells; 48 h; wild-type promoter
# Protocol: The murine PGC1α promoter was obtained from ADDGENE. Mutant promoters were verified by sequencing. UACC-62 cells were transfected with each promoter construct, pRL-CMV Renilla control and a M-MITF overexpression vector. PLX4720 treatment was for 48 h. Results reported are averages of at least three independent experiments, normalized for transfection efficiency using Renilla luciferase.
# [1] = tested on: BRAF mutant colon cancer cell lines; assay: phospho-ERK Western blot; format: cell-based; details: two BRAF mutant colon cancer cell lines; 1 μM, 24 h
# Protocol: FIG. 2B are representative Western blots showing the ERK activity in melanoma or colon cancer cells treated with PLX4720 (1 μM) for 24 h.
# (§1) Whole cell lysates were prepared in lysis buffer supplemented with protease and phosphatase inhibitors (Roche). Equal amounts of protein were resolved by electrophoresis on gradient gels (Bio-Rad).
# (§2) Melanoma biopsies prior and during treatment were sectioned, embedded in paraffin and stained with the phospho-ERK1/2 antibody (Cell Signaling Technology). PLX4720 was used at 1 μM concentration in all assays, whereas control samples were treated with an equal volume of DMSO.
# [2] = tested on: melanoma cell line that does not contain the BRAF mutation; assay: Lactate assay; format: cell-based; details: melanoma cell line without BRAF mutation; 16 hours
# Protocol: (§3) FIG. 1F are histograms showing the lactate levels in media conditioned from the indicated cell lines treated with PLX4720 or vehicle control for 16 hours.
# (§4) Cell number was calculated using the CYQUANT® assay (INVITROGEN™) or crystal violet staining. Lactate measurements were done using the Lactate Assay (BioVision or SIGMA®) per manufacturer's protocols. Indicated cell lines were plated in complete media overnight. Media was changed to serum free-media to avoid interference with the assay for 16 h with either PLX4720 (3 μM) or PLX4032 (1 μM) or vehicle control prior to harvesting cells and measurement of lactate. Results were normalized to cell number. All assays were performed in logarithmically growing cells.
# BRAF mutant melanomas [3] = assay: Lactate assay; format: cell-based; details: all BRAF mutant melanomas evaluated; 16 hours
# Protocol: as §3, §4
# [4] = tested on: BRAF mutant melanoma cell line UACC62; assay: Electron microscopy, mitochondrial number; format: cell-based; details: 3 μM, 72 hrs
# Protocol: Electron microscopy of UACC-62 melanoma cells treated with vehicle or PLX4720 (3 μM, 72 hrs) was performed at Massachusetts General Hospital's PMB Microscopy Core. Cells were fixed for 1 hr at room temp in 2.0% glutaraldehyde in 0.1 M sodium cacodylate buffer, pH 7.4 (Electron Microscopy Sciences, Hatfield, Pa.). Cells were rinsed in buffer, scraped and pelleted. The pellets were treated with 1.0% osmium tetroxide (EMS) in cacodylate buffer for 1 hr at room temp. They were rinsed and then resuspended in 2.0% agarose for ease of handling. Small pieces were dehydrated through a graded series of ethanol, then infiltrated with eponate resin (Ted Pella, Redding, Calif.) overnight at room temp. They were then embedded in resin overnight at 60° C. Thin sections were cut on a Leica UC6 ultramicrotome, collected onto formvar-carbon coated slot grids and post-stained with uranyl acetate and lead citrate. […] Images were collected with an AMT digital imaging system (Advanced Microscopy Techniques, Danvers, Mass.). Mitochondrial density was calculated by morphometrics by standard protocols.
# [5] = tested on: BRAF mutant (UACC-62) melanoma cell line; assay: MITOTRACKER Red flow cytometry; format: cell-based; details: 1 μM, 72 h
# Protocol: (§5) MITOTRACKER® Red, Green and MITOSOX™ were obtained from INVITROGEN™ using manufacturer's recommended protocols. Mean fluorescence was determined by FlowJo software and normalized to vehicle-treated cells.
# UACC-257 cells = assay: Pigmentation of cell pellets; format: cell-based; details: 72 h
# Source text: Equal number of cells was pelleted by centrifugation.
# [6] = tested on: BRAF mutant colon cancer cell lines; assay: PGC1α mRNA by quantitative PCR; format: cell-based; details: two BRAF mutant colon cancer cell lines; 1 μM, 24 h
# [7] = tested on: BRAF mutant melanoma M14 cells; assay: PGC1β mRNA time course; format: cell-based; details: over 24 hours
# [8] = tested on: melanomas with BRAF mutations; assay: PGC1α mRNA by quantitative PCR; format: cell-based; details: 1 μM, 24 h
# [9] = tested on: BRAF mutant (UACC-62) melanoma cell line; assay: MITOSOX fluorescence assay; format: cell-based; details: 1 μM, 72 h
# Protocol: as §5
# [10] = tested on: BRAF wild-type (MeWo) melanoma cell line; assay: MITOTRACKER Green flow cytometry (mitochondrial density); format: cell-based; details: 1 μM, 72 h
# Protocol: as §5
# [11] = tested on: BRAF mutant (UACC-62 and UACC-257) melanoma cell lines; assay: as above; format: cell-based; details: 1 μM, 72 h; two BRAF mutant melanomas
# Protocol: as §5
# BRAF wild-type melanoma = assay: PGC1α mRNA by quantitative PCR; format: cell-based; details: 1 μM, 24 h
# [12] = tested on: melanoma cell line that does not contain the BRAF mutation; assay: phospho-ERK Western blot; format: cell-based; details: melanoma cell line without BRAF mutation
# Protocol: FIG. 1G are representative Western blots showing activated ERK activity in cells of FIG. 1f using phospho-ERK antibodies.
# as §1, §2
# BRAF mutant melanomas [13] = assay: Gene set enrichment analysis of melanoma cell lines treated with vemurafenib; format: cell-based; details: PLX4032 treated melanoma cell lines (n = 6)
# [14] = tested on: BRAF(V600E) parental cells; assay: ATP assay in isogenic cells; format: cell-based, human; details: 1 μM, 24 h
# Protocol: FIG. 6G are histograms showing the ATP levels, normalized to cell number in BRAF(V600E)+vector and BRAF(V600E)+MITF treated with PLX4032 (1 μM) for 24 h. ***, p<0.001 compared to control cells.
# Glucose uptake (relative to total cell numbers) was measured over 24 h as trace [^3H]-deoxyglucose uptake in cells growing in glucose-containing media followed by plate harvest and subsequent analysis on a PerkinElmer® Wallac 1450 Microbeta scintillation counter. Oxygen consumption was measured using XF Flux Analyzer (Seahorse Biosciences) using standard protocols. ATP measurements were conducted using ENLITEN® ATP assay (PROMEGA®) according to standard trichloroacetic acid (TCA) extraction protocols.
structure (smiles),measurement,setting,value
"CCCS(=O)(=O)Nc1ccc(F)c(C(=O)c2c[nH]c3ncc(Cl)cc23)c1F [PLX4720, N-[3-[(5-Chloro-1H-pyrrolo[2,3-b]pyridin-3-yl)carbonyl]-2,4-difluorophenyl]-1-propanesulfonamide]",activity of PGC1α promoter upstream of luciferase,PGC1α promoter,induction of the wild-type promoter
same,ERK phosphorylation,[1],suppression of ERK phosphorylation similar to that seen in melanomas
same,lactate levels,[2],did not change
same,lactate levels,BRAF mutant melanomas [3],reduced
same,number of mitochondria per cell,[4],significant increase
same,MITOTRACKER Red fluorescence (mitochondrial activity and mass),[5],induced
same,pigmentation,UACC-257 cells,increased pigmentation
same,PGC1α expression,[6],no effect
same,PGC1β mRNA,[7],no change
same,PGC1α mRNA,"[8]; M14 cells, control siRNA",strongly induced
same,induction of PGC1α mRNA,"[8]; UACC62 cells, control siRNA",3 fold
same,increase in PGC1α mRNA,[8]; all melanomas with BRAF mutations,3-14 fold
same,production of mitochondrial oxidative stress (MITOSOX),[9],increased
same,mitochondrial density (MITOTRACKER Green),[10],did not affect
same,mitochondrial density (MITOTRACKER Green),[11],increased
same,expression of PGC1α,BRAF wild-type melanoma,No change
same,ERK signaling,[12],inability of PLX4720 to suppress ERK signaling
CCCS(=O)(=O)Nc1ccc(F)c(C(=O)c2c[nH]c3ncc(-c4ccc(Cl)cc4)cc23)c1F [vemurafenib],"ES, CANCERDRUGS_PROBCELL_UP",BRAF mutant melanomas [13]; gene set size 15,−0.6598
same,"NES, CANCERDRUGS_PROBCELL_UP",BRAF mutant melanomas [13]; gene set size 15,−1.791
same,"ES, CAMPTOTHECIN_PROBCELL_UP",BRAF mutant melanomas [13]; gene set size 17,−0.6506
same,"NES, CAMPTOTHECIN_PROBCELL_UP",BRAF mutant melanomas [13]; gene set size 17,−1.802
same,"ES, ATP_SYNTHESIS",BRAF mutant melanomas [13]; gene set size 19,−0.6141
same,"ES, FLAGELLAR_ASSEMBLY",BRAF mutant melanomas [13]; gene set size 19,−0.6141
same,"ES, TYPE_III_SECRETION_SYSTEM",BRAF mutant melanomas [13]; gene set size 19,−0.6141
same,"NES, ATP_SYNTHESIS",BRAF mutant melanomas [13]; gene set size 19,−1.75
same,"NES, FLAGELLAR_ASSEMBLY",BRAF mutant melanomas [13]; gene set size 19,−1.8
same,"NES, TYPE_III_SECRETION_SYSTEM",BRAF mutant melanomas [13]; gene set size 19,−1.739
same,"ES, CITRATE_CYCLE_TCA_CYCLE",BRAF mutant melanomas [13]; gene set size 20,−0.8827
same,"ES, PHOTOSYNTHESIS",BRAF mutant melanomas [13]; gene set size 20,−0.6181
same,"NES, CITRATE_CYCLE_TCA_CYCLE",BRAF mutant melanomas [13]; gene set size 20,−2.017
same,"NES, PHOTOSYNTHESIS",BRAF mutant melanomas [13]; gene set size 20,−1.797
same,"ES, BRENTANI_TRANSPORT_OF_VESICLES",BRAF mutant melanomas [13]; gene set size 23,−0.604
same,"NES, BRENTANI_TRANSPORT_OF_VESICLES",BRAF mutant melanomas [13]; gene set size 23,−1.772
same,"ES, HSA00020_CITRATE_CYCLE",BRAF mutant melanomas [13]; gene set size 25,−0.6303
same,"NES, HSA00020_CITRATE_CYCLE",BRAF mutant melanomas [13]; gene set size 25,−1.94
same,"ES, HSA00640_PROPANOATE_METABOLISM",BRAF mutant melanomas [13]; gene set size 29,−0.5472
same,"NES, HSA00640_PROPANOATE_METABOLISM",BRAF mutant melanomas [13]; gene set size 29,−1.733
same,"ES, VALINE_LEUCINE_AND_ISOLEUCINE_DEGRADATION",BRAF mutant melanomas [13]; gene set size 35,−0.5231
same,"NES, VALINE_LEUCINE_AND_ISOLEUCINE_DEGRADATION",BRAF mutant melanomas [13]; gene set size 35,−1.732
same,"ES, HSA000280_VALINE_LEUCINE_AND_ISOLEUCINE_DEGRADATION",BRAF mutant melanomas [13]; gene set size 42,−0.5627
same,"NES, HSA000280_VALINE_LEUCINE_AND_ISOLEUCINE_DEGRADATION",BRAF mutant melanomas [13]; gene set size 42,−1.945
same,"ES, OXIDATIVE_PHOSPHORYLATION",BRAF mutant melanomas [13]; gene set size 55,−0.5114
same,"NES, OXIDATIVE_PHOSPHORYLATION",BRAF mutant melanomas [13]; gene set size 55,−1.891
same,"ES, HSA00190_OXIDATIVE_PHOSPHORYLATION",BRAF mutant melanomas [13]; gene set size 100,−0.4531
same,"NES, HSA00190_OXIDATIVE_PHOSPHORYLATION",BRAF mutant melanomas [13]; gene set size 100,−1.845
same,"ES, PENG_GLUTAMINE_UP",BRAF mutant melanomas [13]; gene set size 227,−0.3896
same,"NES, PENG_GLUTAMINE_UP",BRAF mutant melanomas [13]; gene set size 227,−1.777
same,drop in ATP,[14],42%
